Results taken from ChEMBL document CHEMBL1201862, “PubChem BioAssay data set” (2004).
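Test compounds were applied to cells in 96-well plates for 48 hours at 5 doses. Here, GI50 denotes the concentration required for 50% inhibition of growth.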 Activity calls are given as the source filed them. Rule as the data show it: active = GI50 up to about 1.1 µM and inactive = higher. Positions of bridges follow the written chain, without caps; N, C: chain ends. Non-standard residues stand in square brackets, D forms with d. Residues, ends and D or L forms follow the SMILES beside them. *: point of attachment. Cbz = O=C(OCc1ccccc1)*; Aib = CC(C)(N)C(=O)O; OBn = c1ccc(CO*)cc1; βAla = NCCC(=O)O

Columns and labels:
Assay in all cases: DTP human tumour cell line panel, 48 h
ACHN = system: ACHN
CAKI-1 = system: CAKI-1
MDA-MB-231 = system: MDA-MB-231
HOP-92 = system: HOP-92
TK-10 = system: TK-10
COLO 205 = system: COLO 205
T47D = system: T47D
HOP-62 = system: HOP-62
UACC-62 = system: UACC-62
BT-549 = system: BT-549
SNB-75 = system: SNB-75
SR = system: SR
UACC-257 = system: UACC-257
OVCAR-4 = system: OVCAR-4
SNB-19 = system: SNB-19
OVCAR-5 = system: OVCAR-5
786-0 = system: 786-0
MCF7 = system: MCF7
IGROV-1 = system: IGROV-1

SMILES | GI50 (ACHN) | GI50 (CAKI-1) | GI50 (MDA-MB-231) | GI50 (HOP-92) | GI50 (TK-10) | GI50 (COLO 205) | GI50 (T47D) | GI50 (HOP-62) | GI50 (UACC-62) | GI50 (BT-549) | GI50 (SNB-75) | GI50 (SR) | GI50 (UACC-257) | GI50 (OVCAR-4) | GI50 (SNB-19) | GI50 (OVCAR-5) | GI50 (786-0) | GI50 (MCF7) | GI50 (IGROV-1)
Cn1c(=O)c2sc3c4sc5c(=O)n(C)c6ccccc6c5c4sc3c2c2ccccc21 | 48.1 µM (inactive) | > 100 µM (inactive) | 31.5 µM (inactive) | 90.8 µM (inactive) | > 100 µM (inactive) | > 100 µM (inactive) | > 100 µM (inactive) | 46.5 µM (inactive) | > 100 µM (inactive) | > 100 µM (inactive) | 42.6 µM (inactive) | 66.4 µM (inactive) | > 100 µM (inactive) | 98.9 µM (inactive) | 22.4 µM (inactive) | > 100 µM (inactive) | 38.1 µM (inactive) | > 100 µM (inactive) | > 100 µM (inactive)
CC(C)NC(=O)OCc1c(COC(=O)NC(C)C)n(C)c2c1ccc1ccccc12 | 1.48 µM (inactive) | 0.542 µM (active) | 1.57 µM (inactive) | 1.16 µM (inactive) | 1.63 µM (inactive) | 1.84 µM (inactive) | 0.247 µM (active) | 4.75 µM (inactive) | 1.44 µM (inactive) | 0.398 µM (active) | 1.83 µM (inactive) | 0.57 µM (active) | 1.52 µM (inactive) | 2.75 µM (inactive) | 1.74 µM (inactive) | 2.97 µM (inactive) | 1.21 µM (inactive) | 0.57 µM (active) | 1.43 µM (inactive)
COc1ccc(N2C(=O)CSC2c2cc3cc(Br)ccc3nc2Cl)cc1 (stereo not drawn) | 19 µM (inactive) | 27.5 µM (inactive) | > 50 µM (inactive) | > 50 µM (inactive) | > 50 µM (inactive) | > 50 µM (inactive) | 38.3 µM (inactive) | > 50 µM (inactive) | 10.3 µM (inactive) | > 50 µM (inactive) | > 50 µM (inactive) | 18.7 µM (inactive) | 17.9 µM (inactive) | > 50 µM (inactive) | > 50 µM (inactive) | > 50 µM (inactive) | > 50 µM (inactive) | 31.7 µM (inactive) | > 50 µM (inactive)
Brc1ccc2[nH]cc(-c3csc(-c4ccccn4)n3)c2c1 | 5.85 µM (inactive) | 17.1 µM (inactive) | 22.9 µM (inactive) | 20.8 µM (inactive) | 24.2 µM (inactive) | 13.4 µM (inactive) | 10.7 µM (inactive) | 15.8 µM (inactive) | 8.18 µM (inactive) | > 89.3 µM (inactive) | 16.9 µM (inactive) | 15.4 µM (inactive) | 23 µM (inactive) | 14.4 µM (inactive) | 35 µM (inactive) | > 51.1 µM (inactive) | 7.93 µM (inactive) | 10.3 µM (inactive) | 23 µM (inactive)
CCOP(=O)(OCC)C(Nc1ccc(F)cc1)c1ccccc1 (stereo not drawn) | > 100 µM (inactive) | > 100 µM (inactive) | > 100 µM (inactive) | 94.6 µM (inactive) | > 100 µM (inactive) | > 100 µM (inactive) | 35.1 µM (inactive) | > 100 µM (inactive) | > 100 µM (inactive) | 79.6 µM (inactive) | > 100 µM (inactive) | 97.7 µM (inactive) | > 100 µM (inactive) | > 100 µM (inactive) | > 100 µM (inactive) | > 100 µM (inactive) | > 100 µM (inactive) | > 100 µM (inactive) | > 100 µM (inactive)
NC1=NCC(CN2CCCC2)O1 (stereo not drawn) | > 100 µM (inactive) | > 100 µM (inactive) | > 100 µM (inactive) | > 100 µM (inactive) | > 100 µM (inactive) | > 100 µM (inactive) | > 100 µM (inactive) | > 100 µM (inactive) | > 100 µM (inactive) | > 100 µM (inactive) | > 100 µM (inactive) | > 100 µM (inactive) | > 100 µM (inactive) | > 100 µM (inactive) | > 100 µM (inactive) | > 100 µM (inactive) | > 100 µM (inactive) | > 100 µM (inactive) | > 100 µM (inactive)
CSC(=N/N=C(\C)c1ccc(S(=O)(=O)N(C)c2ccccc2)cc1)SC | > 70 µM (inactive) | > 64.9 µM (inactive) | > 61.8 µM (inactive) | > 43.8 µM (inactive) | > 100 µM (inactive) | > 67.1 µM (inactive) | > 60.7 µM (inactive) | > 62.5 µM (inactive) | > 65.8 µM (inactive) | > 50.8 µM (inactive) | > 63.1 µM (inactive) | > 59.6 µM (inactive) | > 100 µM (inactive) | > 58.6 µM (inactive) | > 66.2 µM (inactive) | > 66.5 µM (inactive) | > 64.9 µM (inactive) | 31.1 µM (inactive) | > 61.4 µM (inactive)
CC1(C)NC(=O)C(NC(=O)C(CC(=O)OCc2ccccc2)NC(=O)OCc2ccccc2)CCCCNC(=O)CCNC1=O (stereo not drawn) (Cbz-D(OBn)K[Aib][βAla]; lactam 2-C; configuration not given here) | > 100 µM (inactive) | > 100 µM (inactive) | > 100 µM (inactive) | > 100 µM (inactive) | > 100 µM (inactive) | > 100 µM (inactive) | > 100 µM (inactive) | > 100 µM (inactive) | > 100 µM (inactive) | > 100 µM (inactive) | > 100 µM (inactive) | > 10 µM (inactive) |  | > 100 µM (inactive) | > 100 µM (inactive) | > 100 µM (inactive) | > 100 µM (inactive) | > 100 µM (inactive) | > 100 µM (inactive)
c1ccc(CNCCN2CCNCC2)nc1 | > 100 µM (inactive) | > 100 µM (inactive) | > 100 µM (inactive) | > 100 µM (inactive) | > 100 µM (inactive) | > 100 µM (inactive) | > 100 µM (inactive) | > 100 µM (inactive) | > 100 µM (inactive) | > 100 µM (inactive) | 52 µM (inactive) | > 100 µM (inactive) | > 100 µM (inactive) | > 100 µM (inactive) | > 100 µM (inactive) | > 100 µM (inactive) | > 100 µM (inactive) | > 100 µM (inactive) | > 100 µM (inactive)
COc1ccc(/C(CC2OC(=O)c3ccccc32)=N\NC(N)=O)cc1 (stereo not drawn) | > 100 µM (inactive) | > 100 µM (inactive) | > 100 µM (inactive) | > 100 µM (inactive) | > 100 µM (inactive) | > 100 µM (inactive) | > 100 µM (inactive) | > 100 µM (inactive) | > 100 µM (inactive) | > 100 µM (inactive) | > 100 µM (inactive) | > 100 µM (inactive) | > 100 µM (inactive) | > 100 µM (inactive) | > 100 µM (inactive) | > 100 µM (inactive) | > 100 µM (inactive) | > 100 µM (inactive) | > 100 µM (inactive)
CCOP(=O)(Nc1ccc2oc(=O)c3ccccc3c2c1)OCC | 33.2 µM (inactive) | 26.2 µM (inactive) | 38.4 µM (inactive) | 24.6 µM (inactive) | 49.1 µM (inactive) | > 100 µM (inactive) | 35.3 µM (inactive) | 62.1 µM (inactive) | 48.1 µM (inactive) | 15.2 µM (inactive) | 66.2 µM (inactive) | 31.7 µM (inactive) | > 100 µM (inactive) | 60.1 µM (inactive) | 84.1 µM (inactive) | 80.4 µM (inactive) | 76.7 µM (inactive) | 14.2 µM (inactive) | 48 µM (inactive)
COc1ccc(OC)c(C2CCc3cnc4nc(N)nc(N)c4c3C2)c1 (stereo not drawn) | > 100 µM (inactive) | > 100 µM (inactive) | > 100 µM (inactive) | > 100 µM (inactive) | > 100 µM (inactive) | > 100 µM (inactive) | > 100 µM (inactive) | > 100 µM (inactive) | 74 µM (inactive) | > 100 µM (inactive) | 19.7 µM (inactive) | 56.9 µM (inactive) | 61.9 µM (inactive) | > 100 µM (inactive) | > 100 µM (inactive) | > 100 µM (inactive) | 66.7 µM (inactive) | > 100 µM (inactive) | 56 µM (inactive)
CC1=[N+](C)CCN1C | > 100 µM (inactive) | > 100 µM (inactive) | > 100 µM (inactive) | > 100 µM (inactive) | > 100 µM (inactive) | > 100 µM (inactive) | > 100 µM (inactive) | > 100 µM (inactive) |  | > 100 µM (inactive) | > 100 µM (inactive) | > 100 µM (inactive) | > 100 µM (inactive) | > 100 µM (inactive) | > 100 µM (inactive) | > 100 µM (inactive) | > 100 µM (inactive) | > 100 µM (inactive) | > 100 µM (inactive)
COc1cc(C2c3cc4c(cc3OC(Nc3ccc(C(=O)O)cc3)C2C)OCO4)cc(OC)c1OC (stereo not drawn) | 1.38 µM (inactive) | 0.204 µM (active) | 0.189 µM (active) | 4.13 µM (inactive) | 25.4 µM (inactive) | 0.202 µM (active) | 0.458 µM (active) | 0.446 µM (active) | 0.403 µM (active) | 0.467 µM (active) | 0.295 µM (active) | 0.204 µM (active) | > 40.3 µM (inactive) | 0.458 µM (active) | 0.472 µM (active) | 0.841 µM (active) | 0.468 µM (active) | 0.232 µM (active) | 0.618 µM (active)
COc1ccc(C(Nc2ccccn2)c2cc(C(C)(C)C)cc(C(C)(C)C)c2O)cc1 (stereo not drawn) | 30.8 µM (inactive) | 39.4 µM (inactive) | 33.4 µM (inactive) | 31.6 µM (inactive) | 49.7 µM (inactive) | 19 µM (inactive) | 6.67 µM (inactive) | 16.9 µM (inactive) | 17 µM (inactive) | 17 µM (inactive) | 13.8 µM (inactive) | 10.1 µM (inactive) | 26.2 µM (inactive) | 34.4 µM (inactive) | 61 µM (inactive) | 42 µM (inactive) | 21.4 µM (inactive) | 16.2 µM (inactive) | 24 µM (inactive)
